US20150232452A1, “NOVEL RAF KINASE INHIBITORS” (Ruga Corporation, priority 2012, published 2015)

Key:
[1] = molecular target: Braf V600E (recombinant V600E mutated B-RAF) (Homo sapiens, UniProt P15056, V600E); assay: In vitro assay for determining inhibition of mutant B-RAF kinase; type: biochemical; details: 10 nM recombinant V600E mutated B-RAF, 1 μM MEK (K97R) as substrate
Experimental: In Vitro Assay for Determining Inhibition of B-RAF Kinase or Mutant B-RAF Kinase
Solutions of varying concentrations of test compounds or vehicle are added to 10 nM recombinant V600E mutated B-RAF proteins incubated in the presence of different concentrations of ATP and 1 μM MEK (K97R) as substrate, as previously described (Wilhelm, S. M., et al., Cancer Res., 64: 7099-7109, 2004; Mason, C. S., et al., EMBO J. 18: 2137-2148, 1999; Marais, R., et al., J. Biol. Chem., 272: 4378-4383, 1997). At least triplicate determinations for each individual test compound concentration are made and data is plotted as mean±standard deviation relative to the control vehicle.

[2] = tested on: A375 cells (V600E activated B-RAF); assay: In vitro assay for tumor cell growth (MTT, 72 hours incubation); type: cell-based; details: Homo sapiens, A-375, 72 h, growth inhibition of A375 cells, unit inferred
Experimental: In Vitro Assays for Tumor Cell Growth
Cell lines are obtained from the American Type Tissue Culture Collection (Maryland, USA) and cultured in media containing heat-inactivated 10% fetal bovine serum. Cell cultures are also maintained in 10 U/mL penicillin, 100 μg/mL streptomycin and 2 mM glutamine. At least triplicate determinations for each individual test compound concentration are made and data is plotted as mean±standard deviation relative to the control vehicle.

Braf V600E (recombinant V600E mutated B-RAF), sequence (P15056 whole entry V600E): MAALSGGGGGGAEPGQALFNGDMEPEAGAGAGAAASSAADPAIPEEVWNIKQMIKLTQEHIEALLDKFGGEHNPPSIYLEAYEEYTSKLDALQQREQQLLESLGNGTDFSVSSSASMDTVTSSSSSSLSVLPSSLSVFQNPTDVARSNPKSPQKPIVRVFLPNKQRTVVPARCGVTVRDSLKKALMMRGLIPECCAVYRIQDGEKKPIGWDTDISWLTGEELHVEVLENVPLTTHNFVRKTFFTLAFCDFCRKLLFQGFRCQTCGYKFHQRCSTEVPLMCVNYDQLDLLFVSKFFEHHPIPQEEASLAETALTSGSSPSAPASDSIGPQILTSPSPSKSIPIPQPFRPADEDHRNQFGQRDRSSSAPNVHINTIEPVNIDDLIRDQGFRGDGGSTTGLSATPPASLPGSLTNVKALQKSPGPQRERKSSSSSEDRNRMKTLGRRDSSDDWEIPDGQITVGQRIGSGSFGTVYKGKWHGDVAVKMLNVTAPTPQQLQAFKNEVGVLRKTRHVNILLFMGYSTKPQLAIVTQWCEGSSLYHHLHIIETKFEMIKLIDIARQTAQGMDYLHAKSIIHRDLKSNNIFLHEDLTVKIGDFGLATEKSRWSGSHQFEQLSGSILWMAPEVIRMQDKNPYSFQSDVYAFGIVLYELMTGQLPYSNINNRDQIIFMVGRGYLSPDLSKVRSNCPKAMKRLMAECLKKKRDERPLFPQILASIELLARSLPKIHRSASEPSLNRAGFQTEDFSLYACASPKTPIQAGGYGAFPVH

CC(C)(C)n1cc(-c2cccc(NC(=O)Nc3ccc(C(F)(F)F)cc3)c2)c(-c2ccncc2)n1 [Example 25, 1-(3-(1-(tert-butyl)-3-(pyridin-4-yl)-1H-pyrazol-4-yl)phenyl)-3-(4-(trifluoromethyl)phenyl)urea] was tested, and the IC50 [1] was 1600 nM.
In the case of CCn1cc(-c2cccc(NC(=O)Nc3ccc(Cl)cc3Cl)c2)c(-c2ccncc2)n1 [Example 12, 1-(2,4-dichlorophenyl)-3-(3-(1-ethyl-3-(pyridin-4-yl)-1H-pyrazol-4-yl)phenyl)urea], the IC50 [1] is reported as 6.39 nM and the IC50 [2] is reported as 1370 nM.
CC(C)(C)c1nc(-c2ccnc(N)n2)c(-c2cccc(NC(=O)Nc3ccc(C(F)(F)F)cc3)c2)s1 [Example 1, 1-(3-(4-(2-aminopyrimidin-4-yl)-2-(tert-butyl)thiazol-5-yl)phenyl)-3-(4-(trifluoromethyl)phenyl)urea] was tested, and the IC50 [1] was 225 nM and the IC50 [2] was greater than 10000 nM.
With CCn1cc(-c2cccc(NC(=O)Nc3ccc(F)c(C(F)(F)F)c3)c2)c(-c2ccncc2)n1 [Example 8, 1-(3-(1-ethyl-3-(pyridin-4-yl)-1H-pyrazol-4-yl)phenyl)-3-(4-fluoro-3-(trifluoromethyl)phenyl)urea] the IC50 [1] was 4.31 nM and the IC50 [2] was 2540 nM.
With CCn1cc(-c2cccc(NC(=O)Nc3ccc(Cl)c(C(F)(F)F)c3)c2)c(-c2ccncc2)n1 [Example 9, 1-(4-chloro-3-(trifluoromethyl)phenyl)-3-(3-(1-ethyl-3-(pyridin-4-yl)-1H-pyrazol-4-yl)phenyl)urea] the IC50 [1] was 3.01 nM and the IC50 [2] was 1780 nM.
CCn1cc(-c2cccc(NC(=O)Nc3cccc(C(F)(F)F)c3)c2)c(-c2ccncc2)n1 [Example 7, 1-(3-(1-ethyl-3-(pyridin-4-yl)-1H-pyrazol-4-yl)phenyl)-3-(3-(trifluoromethyl)phenyl)urea] showed an IC50 [1] of 4.44 nM and an IC50 [2] of 1750 nM.
In the case of CCn1cc(-c2cccc(NC(=O)Nc3ccc(C(C)(C)C)cc3)c2)c(-c2ccncc2)n1 [Example 4, 1-(4-(tert-butyl)phenyl)-3-(3-(1-ethyl-3-(pyridin-4-yl)-1H-pyrazol-4-yl)phenyl)urea], the IC50 [1] is reported as 6.53 nM and the IC50 [2] is reported as 506 nM.
Work on CC(C)(C)c1nc(-c2ccnc(N)n2)c(-c2cccc(NC(=O)Nc3ccc(C(F)(F)F)cc3)c2F)s1 [Example 2, 1-(3-(4-(2-aminopyrimidin-4-yl)-2-(tert-butyl)thiazol-5-yl)-2-fluorophenyl)-3-(4-(trifluoromethyl)phenyl)urea] yielded an IC50 [1] of 3980 nM and an IC50 [2] greater than 10000 nM.
CCn1cc(-c2cccc(NC(=O)Nc3ccccc3Cl)c2)c(-c2ccncc2)n1 [Example 13, 1-(2-chlorophenyl)-3-(3-(1-ethyl-3-(pyridin-4-yl)-1H-pyrazol-4-yl)phenyl)urea] was tested, and the IC50 [1] was 58.7 nM.
In the case of CC(C)n1cc(-c2cccc(NC(=O)Nc3ccc(C(F)(F)F)cc3)c2)c(-c2ccncc2)n1 [Example 23, 1-(3-(1-isopropyl-3-(pyridin-4-yl)-1H-pyrazol-4-yl)phenyl)-3-(4-(trifluoromethyl)phenyl)urea], the IC50 [1] is reported as 6 nM and the IC50 [2] is reported as 1730 nM.
For CCn1cc(-c2cccc(NC(=O)Nc3cccc(F)c3)c2)c(-c2ccncc2)n1 [Example 14, 1-(3-(1-ethyl-3-(pyridin-4-yl)-1H-pyrazol-4-yl)phenyl)-3-(3-fluorophenyl)urea], the IC50 [1] was 39.3 nM.
CCn1cc(-c2cccc(NC(=O)Nc3ccc(Cl)cc3)c2)c(-c2ccncc2)n1 [Example 16, 1-(4-chlorophenyl)-3-(3-(1-ethyl-3-(pyridin-4-yl)-1H-pyrazol-4-yl)phenyl)urea] was tested, and the IC50 [1] was 2.31 nM and the IC50 [2] was 272 nM.
CC(C)n1cc(-c2cccc(NC(=O)Nc3ccc(I)c(F)c3)c2)c(-c2ccncc2)n1 [Example 24, 1-(3-fluoro-4-iodophenyl)-3-(3-(1-isopropyl-3-(pyridin-4-yl)-1H-pyrazol-4-yl)phenyl)urea] showed an IC50 [2] of 233 nM.
CCn1cc(-c2cccc(NC(=O)Nc3ccccc3F)c2)c(-c2ccncc2)n1 [Example 15, 1-(3-(1-ethyl-3-(pyridin-4-yl)-1H-pyrazol-4-yl)phenyl)-3-(2-fluorophenyl)urea] showed an IC50 [1] of 53.8 nM.
CCn1cc(-c2cccc(NC(=O)Nc3ccc(I)c(F)c3)c2)c(-c2ccncc2)n1 [Example 19, 1-(3-(1-ethyl-3-(pyridin-4-yl)-1H-pyrazol-4-yl)phenyl)-3-(3-fluoro-4-iodophenyl)urea] showed an IC50 [2] of 42 nM.
For CCn1cc(-c2cccc(NC(=O)Nc3ccc(Br)c(F)c3)c2)c(-c2ccnc(N)n2)n1 [Example 27, 1-(3-(3-(2-aminopyrimidin-4-yl)-1-ethyl-1H-pyrazol-4-yl)phenyl)-3-(4-bromo-3-fluorophenyl)urea], the IC50 [2] was 571 nM.
In the case of CCn1cc(-c2cccc(NC(=O)Nc3ccc(C(F)(F)F)cc3)c2)c(-c2ccnc(N)n2)n1 [Example 28, 1-(3-(3-(2-aminopyrimidin-4-yl)-1-ethyl-1H-pyrazol-4-yl)phenyl)-3-(4-(trifluoromethyl)phenyl)urea], the IC50 [1] is reported as 3.5 nM and the IC50 [2] is reported as 362 nM.
With CCn1cc(-c2cccc(NC(=O)Nc3ccc(I)cc3)c2)c(-c2ccncc2)n1 [Example 10, 1-(3-(1-ethyl-3-(pyridin-4-yl)-1H-pyrazol-4-yl)phenyl)-3-(4-iodophenyl)urea] the IC50 [1] was 2.2 nM and the IC50 [2] was 49 nM.
CCn1cc(-c2cccc(NC(=O)Nc3ccc(Br)cc3F)c2)c(-c2ccncc2)n1 [Example 18, 1-(4-bromo-2-fluorophenyl)-3-(3-(1-ethyl-3-(pyridin-4-yl)-1H-pyrazol-4-yl)phenyl) urea] gave an IC50 [2] of 541 nM.
Molecule CCn1cc(-c2cccc(NC(=O)Nc3ccc(Br)c(F)c3)c2)c(-c2ccncc2)n1 [Example 22, 1-(4-bromo-3-fluorophenyl)-3-(3-(1-ethyl-3-(pyridin-4-yl)-1H-pyrazol-4-yl)phenyl)urea] has an IC50 [2] of 83 nM.
For CCn1cc(-c2cccc(NC(=O)Nc3ccc(Br)cc3)c2)c(-c2ccncc2)n1 [Example 21, 1-(4-bromophenyl)-3-(3-(1-ethyl-3-(pyridin-4-yl)-1H-pyrazol-4-yl)phenyl)urea], the IC50 [2] was 85 nM.
CCn1cc(-c2cccc(NC(=O)Nc3ccc(C(C)C)cc3)c2)c(-c2ccncc2)n1 [Example 6, 1-(3-(1-ethyl-3-(pyridin-4-yl)-1H-pyrazol-4-yl)phenyl)-3-(4-isopropylphenyl)urea] showed an IC50 [1] of 1.18 nM and an IC50 [2] of 449 nM.
CCn1cc(-c2cccc(NC(=O)Nc3ccc(C)cc3)c2)c(-c2ccncc2)n1 [Example 5, 1-(3-(1-ethyl-3-(pyridin-4-yl)-1H-pyrazol-4-yl)phenyl)-3-(p-tolyl)urea] showed an IC50 [1] of 1.61 nM and an IC50 [2] of 815 nM.
Work on CCn1cc(-c2cccc(NC(=O)Nc3ccc(C(F)(F)F)cc3)c2)c(-c2ccncc2)n1 [Example 3, 1-(3-(1-ethyl-3-(pyridin-4-yl)-1H-pyrazol-4-yl)phenyl)-3-(4-(trifluoromethyl)phenyl)urea] yielded an IC50 [1] of 0.72 nM and an IC50 [2] of 202 nM.
For CCn1cc(-c2cccc(NC(=O)Nc3cccc(I)c3)c2)c(-c2ccncc2)n1 [Example 20, 1-(3-(1-ethyl-3-(pyridin-4-yl)-1H-pyrazol-4-yl)phenyl)-3-(3-iodophenyl)urea], the IC50 [2] was 2080 nM.
Molecule CCn1cc(-c2cccc(NC(=O)Nc3ccc(I)cc3F)c2)c(-c2ccncc2)n1 [Example 17, 1-(3-(1-ethyl-3-(pyridin-4-yl)-1H-pyrazol-4-yl)phenyl)-3-(2-fluoro-4-iodophenyl)urea] has an IC50 [2] of 166 nM.
In the case of CCn1cc(-c2cccc(NC(=O)Nc3cccc(C)c3)c2)c(-c2ccncc2)n1 [Example 11, 1-(3-(1-ethyl-3-(pyridin-4-yl)-1H-pyrazol-4-yl)phenyl)-3-(m-tolyl)urea], the IC50 [1] is reported as 4.98 nM and the IC50 [2] is reported as 3470 nM.
